Assay results published in PMC6273342, “Cytotoxic Alkaloids from the Stem of Xylopia laevigata” (Molecules, 2016).
Where two headings read alike, the source gives them in different places.

Experiments:
[1] = system: HL-60 (human promyelocytic leukemia); assay: Alamar Blue cytotoxicity assay, HL-60; format: cell-based; settings: for IC50: Homo sapiens, HL-60, Alamar Blue, 72 h incubation, read-out: IC50 HL60; for selectivity index (SI): SI = IC50[PBMC]/IC50[HL-60]
Description: (§3) B16-F10, HepG2, K562 and HL-60 tumor cell lines were kindly donated by Hospital A.C. […] Cells were maintained in RPMI 1640 medium (Gibco-BRL, Gaithersburg, MD, USA) with 10% fetal bovine serum (Cultilab, Campinas, Brazil), 2 mM L-glutamine (Vetec Química Fina, Duque de Caxias, Brazil) and 50 μg/mL gentamycin (Novafarma, Anápolis, Brazil). Adherent cells were collected by treatment with 0.25% trypsin-EDTA solution (Gibco-BRL). All cell lines were cultured in flasks at 37 °C in 5% CO2 and sub-cultured every 3–4 days to maintain exponential growth. All cell lines were tested for mycoplasma using a Mycoplasma Stain Kit (Sigma-Aldrich, St. Louis, MO, USA) to confirm that the cells were free from contamination.
(§4) Cell viability was quantified using the Alamar Blue assay, according to Ahmed et al. [23]. Cells were placed in 96-well plates for all experiments (0.7 × 10^5 cells/mL for adherent cells or 0.3 × 10^6 cells/mL for suspended cells in 100 μL of medium). After 24 h, the alkaloids (in a range of eight different concentrations varying from 0.19 to 25 μg/mL) were dissolved in dimethyl sulfoxide (DMSO, Sigma-Aldrich Co.), and the solution was added to each well and incubated for 72 h. […] Negative controls received the vehicle that was used for diluting the alkaloids (0.5% DMSO). Four (for cell lines) or 24 h (for PBMCs) before the end of incubation, 20 μL of a stock solution (0.312 mg/mL) of the Alamar Blue (resazurin, Sigma-Aldrich Co.) was added to each well. The absorbance at 570 nm and 600 nm was measured using a SpectraMax 190 Microplate Reader (Molecular Devices, Sunnyvale, CA, USA), and the drug effect was quantified as the percentage of control absorbance.

[2] = system: peripheral blood mononuclear cells (PBMCs); assay: Alamar Blue cytotoxicity assay, non-tumor PBMCs; format: cell-based; settings: Homo sapiens, PBMC, 72 h incubation, ConA-stimulated PBMCs
Description: Heparinized blood was collected from 20- to 35-year-old, healthy non-smokers who had not taken any drugs for at least 15 days prior to sampling, and the peripheral blood mononuclear cells (PBMCs) were isolated using a Ficoll density gradient in a Ficoll-Paque Plus (GE Healthcare Bio-Sciences AB, Uppsala, Sweden). PBMCs were washed and resuspended at a concentration of 0.3 × 10^6 cells/mL in RPMI 1640 medium with 20% fetal bovine serum, 2 mM L-glutamine and 50 μg/mL gentamycin at 37 °C with 5% CO2. Concanavalin A (ConA, Sigma-Aldrich Co.) was used as a mitogen to trigger cell division in T-lymphocytes. ConA (10 μg/mL) was added at the beginning of culture, and the cells were treated with the test compounds after 24 h. Cell viability was examined using a trypan blue exclusion assay for all experiments. Over 90% of the cells were viable at the beginning of the culture. The Research Ethics Committee of the Oswaldo Cruz Foundation (Salvador, Bahia, Brazil) approved the experimental protocol (#031019/2013). All participants signed a written informed consent to participate in the study.

[3] = system: K562 (human chronic myelocytic leukemia); assay: Alamar Blue cytotoxicity assay, K562; format: cell-based; settings: 72 h incubation
Text: (§1) Camargo, São Paulo, Brazil.

B16-F10 (mouse melanoma) = assay: Alamar Blue cytotoxicity assay, B16-F10; format: cell-based; settings: 72 h incubation
Text: as §1

[4] = system: HepG2 (human hepatocellular carcinoma); assay: Alamar Blue cytotoxicity assay, HepG2; format: cell-based; settings: 72 h incubation
Text: as §1

[5] = system: tumor cell lines B16-F10, HepG2, K562 and HL-60; assay: Alamar Blue cytotoxicity assay, summary over the tumor cell lines tested; settings: 72 h, read-out: IC50 in at least one of the tumor cell lines tested
Description: as §3, §4

[6] = design: method as in PMID 22491683; settings: previously studied; cited from earlier work
in vitro = settings: mouse (B16-F10); human (HepG2, K562, HL-60)
Description: as §3, §4

HepG2 cells [7] = assay: Trypan Blue dye exclusion, HepG2; format: cell-based, human; settings: HepG2, 24 h, lanuginosine 10 and 20 μg/mL, (+)-xylopine 5 and 10 μg/mL
Description: (§2) The following set of experiments was performed to investigate the mechanisms involved in the cytotoxic action of the alkaloids lanuginosine and (+)-xylopine. In all experiments, 2 mL of a HepG2 cell solution (0.7 × 10^5 cells/mL) was placed in 24-well plates and incubated overnight to allow the cells to adhere to the plate surface. The cells were then treated for 24 h with the alkaloids lanuginosine (10 and 20 μg/mL) and (+)-xylopine (5 and 10 μg/mL). The negative control was treated with the vehicle (0.2% DMSO) used for diluting the alkaloids. […] Cell viability was assessed for all experiments using a Trypan Blue exclusion assay.

HepG2 cells [8] = assay: Morphological analysis with May-Grünwald-Giemsa staining, HepG2; format: cell-based, human; settings: HepG2, 24 h; lanuginosine 10 and 20 μg/mL, (+)-xylopine 5 and 10 μg/mL
Description: as §2
To evaluate alterations in morphology, cells were cultured under a coverslip, fixed with methanol for 30 s and stained with May-Grünwald-Giemsa stain. Morphological changes were examined by light microscopy (Olympus BX41, Tokyo, Japan) using Image-Pro software (Media Cybernetics, Rockville, MD, USA).

HepG2 cells [9] = assay: Acridine Orange/ethidium bromide staining, fluorescence microscopy, HepG2; format: cell-based, human; settings: HepG2, 24 h; lanuginosine 10 and 20 μg/mL, (+)-xylopine 5 and 10 μg/mL; p < 0.05
Description: as §2
Cells were pelleted and resuspended in saline (25 μL). Then, 1 μL of aqueous solution of AO/EB (100 μg/mL, Sigma-Aldrich Co.) was added, and the cell viability changes were observed under a fluorescence microscope (Olympus BX41). In this assay, AO permeates all cells and makes the nuclei appear green. EB is only taken up by cells when the cytoplasmic membrane integrity is lost and stains the nucleus red. EB also dominates over AO. Thus, live cells have a normal green nucleus; early apoptotic cells have a bright green nucleus with condensed or fragmented chromatin; late apoptotic cells display condensed and fragmented orange chromatin; cells that have died from direct necrosis have a structurally normal orange nucleus. Three hundred cells were counted per sample and classified as viable, apoptotic or necrotic.

HepG2 cells [10] = assay: Annexin assay (phosphatidylserine externalization, flow cytometry), HepG2; format: cell-based, human; settings: HepG2, 24 h; p < 0.05; without affecting the cell membrane integrity
Description: as §2
Phosphatidylserine externalization was analyzed by flow cytometry. A FITC annexin V apoptosis detection kit (BD Biosciences, San Jose, CA, USA) was used to determine cell viability (viable, early apoptotic, late apoptotic and necrotic cells). Cells were washed twice with saline and then resuspended in 100 μL of binding buffer with 5 μL of propidium iodide and 5 μL of FITC annexin V. The cells were gently mixed on a vortexer and incubated for 15 min at room temperature (20–25 °C) in the dark. Afterwards, 400 μL of binding buffer was added to each tube and the cells were analyzed by flow cytometry on a BD LSRFortessa cytometer using BD FACSDiva Software (BD Biosciences) and Flowjo Software 10 (Flowjo LCC, Ashland, OR, USA). Ten thousand events were evaluated per experiment and cellular debris was omitted from the analysis.

HepG2 cells [11] = assay: Internucleosomal DNA fragmentation and cell cycle distribution (flow cytometry, propidium iodide), HepG2; format: cell-based, human; settings: HepG2, 24 h; for Cell Cycle Phases (%) G2/M: NC 19.93 ± 6.12; for Cell Cycle Phases (%) G1: NC 51.50 ± 4.02
Description: as §2
Cells were harvested in a lysis solution containing 0.1% triton X-100 (Sigma Chemical Co., St. Louis, MO, USA), 2 µg/mL propidium iodide (Sigma Chemical Co.), 0.1% sodium citrate and 100 µg/mL RNAse (Sigma Chemical Co.). Cell fluorescence was determined by flow cytometry on a BD LSRFortessa cytometer using BD FACSDiva Software (BD Biosciences) and Flowjo Software 10. Ten thousand events were evaluated per experiment and cellular debris was omitted from the analysis.

SMILES | IC50 [1] | IC50 ([1]; value in brackets) | selectivity index (SI) [1] | IC50 [2] | IC50 ([2]; value in brackets) | IC50 [3] | IC50 ([3]; value in brackets) | IC50 (B16-F10 (mouse melanoma)) | IC50 (B16-F10 (mouse melanoma); value in brackets) | IC50 [4] | IC50 ([4]; value in brackets) | IC50 [5] | other results
COc1cc2c(cc1OC)-c1c(OC)c(OC)cc3c1C(C2)NCC3 (single isomer, unassigned; (+)) [(+)-Norglaucine, (+)-norglaucine] | 6.84 µg/mL | 20 µM | 1.0 | 6.7 µg/mL | 19.6 µM | 7.84 µg/mL | 22.9 µM | 8.48 µg/mL | 24.8 µM | 3.78 µg/mL | 11 µM | < 4 µg/mL | pro-apoptotic effect [6]: no effect was found
COc1cc2c(cc1OC)-c1c(OC)c(O)cc3c1C(C2)NCC3 (single isomer, unassigned; (+)) [(+)-Norpredicentrine, (+)-norpredicentrine] | > 25 µg/mL | – | – | > 25 µg/mL | – | > 25 µg/mL | – | > 25 µg/mL | – | > 25 µg/mL | – | – | IC50 at 72 h (in vitro): > 25 µg/mL
COc1ccc2c(c1)C[C@@H]1NCCc3cc4c(c-2c31)OCO4 [(+)-Xylopine, (+)-xylopine] | 1.87 µg/mL | 6.31 µM | 2.2 | 4.08 µg/mL | 13.8 µM | 3.12 µg/mL | 10.5 µM | 3.77 µg/mL | 12.7 µM | 1.87 µg/mL | 6.31 µM | < 4 µg/mL | number of non-viable cells (HepG2 cells [7]): without increasing the number of non-viable cells; number of viable cells (HepG2 cells [7]; p < 0.05): reduce the number of viable cells; cell morphology (HepG2 cells [8]): morphology consistent with apoptosis, including chromatin condensation and fragmentation of the nuclei; number of apoptotic cells (AO/EB) (HepG2 cells [9]): increased number of apoptotic cells; phosphatidylserine exposure (HepG2 cells [10]): significant increase in phosphatidylserine exposure; Cell Cycle Phases (%) S (HepG2 cells [11]; 5 µg/mL, NC 16.11 ± 1.89): 10.80 ± 1.50 %; Cell Cycle Phases (%) G2/M (HepG2 cells [11]; 5 µg/mL): 64.16 ± 2.56 %; Cell Cycle Phases (%) G1 (HepG2 cells [11]; 5 µg/mL): 28.05 ± 3.15 %; Cell Cycle Phases (%) G2/M (HepG2 cells [11]; 10 µg/mL): 39.96 ± 9.59 %; Cell Cycle Phases (%) G1 (HepG2 cells [11]; 10 µg/mL): 20.43 ± 3.06 %; effect on cell cycle distribution (HepG2 cells [11]; 5 and 10 μg/mL): total number of cells in the G2/M phase increased, indicating cell cycle arrest during this phase; internucleosomal DNA fragmentation (sub-G1) (HepG2 cells [11]; 5 and 10 μg/mL, p < 0.05): increase in the internucleosomal DNA fragmentation
